According to BindingDB's records for doi:10.1074/jbc.M703586200 (University of Minnesota, 2007):

Columns and labels:
Tissue factor [1] = target: T1, Tissue factor (Homo sapiens, UniProt P13726); test: Inhibition of TNF-alpha-induced tissue factor activity in HUVEC preincubated for 4 hrs assessed after 4 hrs of TNFalpha challenge by one stage clotting assay
Tissue factor [2] = target: T1, Tissue factor; test: Inhibition of LPS-induced tissue factor activity in HUVEC preincubated for 4 hrs assessed after 4 hrs of LPS challenge by one stage clotting assay

T1 sequence (P13726 whole entry): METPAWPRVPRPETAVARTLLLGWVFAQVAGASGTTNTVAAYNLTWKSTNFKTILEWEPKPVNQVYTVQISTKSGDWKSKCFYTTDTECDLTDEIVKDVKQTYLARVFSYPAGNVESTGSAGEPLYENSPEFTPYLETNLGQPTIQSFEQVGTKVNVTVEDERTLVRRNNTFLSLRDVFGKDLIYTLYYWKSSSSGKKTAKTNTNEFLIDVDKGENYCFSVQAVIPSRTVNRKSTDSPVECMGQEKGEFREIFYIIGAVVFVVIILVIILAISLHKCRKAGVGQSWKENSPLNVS

Row | SMILES | IC50 (Tissue factor [1]) | IC50 (Tissue factor [2])
1 | CC(=CC(C)C=CC(=O)NO)C(=O)c1ccc(N(C)C)cc1 (centres undefined) | 0.03 µM | –
2 | CCCC(=O)O | 2000 µM | 1000 µM
3 | CCC(=O)CCCCC[C@@H]1NC(=O)[C@H]2CCCCN2C(=O)[C@H]([C@@H](C)CC)NC(=O)[C@H](Cc2cn(OC)c3ccccc23)NC1=O [(6S,9S,12S,14aR)-6-((S)-sec-Butyl)-9-(1-methoxy-1H-indol-3-ylmethyl)-12-(6-oxo-octyl)-decahydro-4a,7,10,13-tetraaza-benzocyclododecene-5,8,11,14-tetraone] | 0.2 µM | 0.15 µM

Now from value to compound:

Row | IC50 (Tissue factor [1]) | IC50 (Tissue factor [2]) | SMILES
4 | 2000 µM | 1500 µM | CCCC(CCC)C(=O)O [Valproinsaeure]
5 | 10 µM | 6 µM | Nc1ccccc1NC(=O)c1ccc(CNC(=O)OCc2cccnc2)cc1 [benzamide-type inhibitor, 3]
